In ChEMBL document CHEMBL1697781, “Assessment of the health effects of chemicals in humans: II. Construction of an adverse effects database for QSAR modeling” (Curr Drug Discov Technol, 2004):

Columns and labels:
Settings in all cases: human; call rule not given here
Hepatotoxicity [1] = test: FDA HLAED, gamma-glutamyl transferase (GGT) increase
Hepatotoxicity [2] = test: FDA HLAED, alkaline phosphatase increase
Hepatotoxicity [3] = test: FDA HLAED, liver enzyme composite activity
Hepatotoxicity [4] = test: FDA HLAED, serum glutamic pyruvic transaminase (SGPT) increase
Hepatotoxicity [5] = test: FDA HLAED, lactate dehydrogenase (LDH) increase
Hepatotoxicity [6] = test: FDA HLAED, serum glutamic oxaloacetic transaminase (SGOT) increase
Wherever GGT Increase - Index Value is given: reference of the scale not given here.
Wherever LDH Increase - Index Value is given: reference of the scale not given here.

Row | SMILES | GGT Increase - Activity Score (Hepatotoxicity [1]) | GGT Increase - Index Value (Hepatotoxicity [1]) | GGT Increase - Number of Reports (Hepatotoxicity [1]) | Alkaline Phosphatase Increase - Activity Score (Hepatotoxicity [2]) | Alkaline Phosphatase Increase - Index Value (Hepatotoxicity [2]) | Alkaline Phosphatase Increase - Number of Reports (Hepatotoxicity [2]) | Composite Activity - Active (Hepatotoxicity [3]) | Composite Activity - Marginal (Hepatotoxicity [3]) | Composite Activity - Score (Hepatotoxicity [3]) | SGPT Increase - Activity Score (Hepatotoxicity [4]) | SGPT Increase - Index Value (Hepatotoxicity [4]) | SGPT Increase - Number of Reports (Hepatotoxicity [4]) | LDH Increase - Activity Score (Hepatotoxicity [5]) | LDH Increase - Index Value (Hepatotoxicity [5]) | LDH Increase - Number of Reports (Hepatotoxicity [5]) | SGOT Increase - Activity Score (Hepatotoxicity [6]) | SGOT Increase - Index Value (Hepatotoxicity [6]) | SGOT Increase - Number of Reports (Hepatotoxicity [6])
1 | Clc1ccc2c(c1)C(c1ccccc1)=NCc1nncn1-2 [ESTAZOLAM] | Inactive | 0.8 | < 4 | Inactive | 0 | < 4 | 0 | 0 | Inactive | Inactive | 0.8 | < 4 | Inactive | 0 | < 4 | Inactive | 0.8 | < 4
2 | C[C@]12CC[C@@H]3c4ccc(OC(=O)c5ccccc5)cc4CC[C@H]3[C@@H]1CC[C@@H]2O [ESTRADIOL BENZOATE] | Inactive | 0.3 | < 4 | Inactive | 1.5 | >= 4 | 0 | 0 | Inactive | Inactive | 2.1 | >= 4 | Inactive | 1.2 | >= 4 | Inactive | 2.8 | >= 4
3 | C[C@]12CC[C@@H]3c4ccc(O)cc4CC[C@H]3[C@@H]1CC[C@@H]2OC(=O)CCC1CCCC1 [ESTRADIOL CYPIONATE] | Inactive | 0.3 | < 4 | Inactive | 1.5 | >= 4 | 0 | 0 | Inactive | Inactive | 2.1 | >= 4 | Inactive | 1.2 | >= 4 | Inactive | 2.8 | >= 4
4 | CCC(=O)Oc1ccc2c(c1)CC[C@@H]1[C@@H]2CC[C@]2(C)[C@@H](OC(=O)CC)CC[C@@H]12 [ESTRADIOL DIPROPIONATE] | Inactive | 0.3 | < 4 | Inactive | 1.5 | >= 4 | 0 | 0 | Inactive | Inactive | 2.1 | >= 4 | Inactive | 1.2 | >= 4 | Inactive | 2.8 | >= 4
5 | CCCCCCC(=O)O[C@H]1CC[C@H]2[C@@H]3CCc4cc(O)ccc4[C@H]3CC[C@]12C [ESTRADIOL ENANTHATE] | Inactive | 0.3 | < 4 | Inactive | 1.5 | >= 4 | 0 | 0 | Inactive | Inactive | 2.1 | >= 4 | Inactive | 1.2 | >= 4 | Inactive | 2.8 | >= 4
6 | C[C@]12CC[C@@H]3c4ccc(OC(=O)Cc5ccc(N(CCCl)CCCl)cc5)cc4CC[C@H]3[C@@H]1CC[C@@H]2OC(=O)Cc1ccc(N(CCCl)CCCl)cc1 [ESTRADIOL MUSTARD] | Inactive | 0 | < 4 | Inactive | 0 | < 4 | 0 | 0 | Inactive | Inactive | 0 | < 4 | Inactive | 0 | < 4 | Inactive | 0 | < 4
7 | CCCCCCCCCCC(=O)O[C@H]1CC[C@H]2[C@@H]3CCc4cc(O)ccc4[C@H]3CC[C@]12C [ESTRADIOL UNDECYLATE] | Inactive | 0.3 | < 4 | Inactive | 1.5 | >= 4 | 0 | 0 | Inactive | Inactive | 2.1 | >= 4 | Inactive | 1.2 | >= 4 | Inactive | 2.8 | >= 4
8 | CCCCC(=O)O[C@H]1CC[C@H]2[C@@H]3CCc4cc(O)ccc4[C@H]3CC[C@]12C [ESTRADIOL VALERATE] | Inactive | 0.3 | < 4 | Inactive | 1.5 | >= 4 | 0 | 0 | Inactive | Inactive | 2.1 | >= 4 | Inactive | 1.2 | >= 4 | Inactive | 2.8 | >= 4
